Measurements: patent publication EP1925314A1, “Pharmaceutical composition with synergistic anticonvulsant effect” (SCHWARZ PHARMA AG, priority 2006, dated 2008)
Like-named read-outs stand apart in the source and are kept apart here.

Columns and labels:
6 Hz-induced seizures [1] = experiment: 6 Hz seizure test in mice, with isobolographic analysis of drug combinations; settings: for anticonvulsant effects against 6 Hz seizure: i.p., mice
epileptic seizures = experiment: ED50 of the individual compounds, seizure model not given (various models of the rat and the mouse); format: in vivo; settings: ip
Experimental: The skilled person may determine the ED50 values by methods known in the art. It is preferred that the ED50 values are determined by preclinical or/and clinical trials. Published ED50 values may also be used. […] Tables 5 and 6 disclose specific ED50 values obtained in various models of the rat and the mouse. A person skilled in the art knows that in a particular model, among different species, ED50 values show a variation by a factor of up to 5 or even larger.

[2] = Clinical population pharmacokinetic analysis
[3] = system: 6 Hz psychomotor seizures; settings: determined in the anticonvulsant drug screening program of NINDS; cited from earlier work
[4] = system: pattern of neuronal activation; settings: Duncan and Kohn (2004); cited from earlier work
mouse cortical neurons = mouse cortical neurons (Bialer et al., 2002); cited from earlier work
[5] = system: refractory self-sustaining status epilepticus; settings: in vivo; cited from earlier work
[6] = system: lithium-pilocarpine-induced status epilepticus; settings: Bialer et al., 2001, 2002; cited from earlier work
[7] = system: cobalt-homocysteine-induced status epilepticus; settings: Bialer et al., 2001, 2002; cited from earlier work
[8] = system: drug metabolizing enzymes; experiment: Inhibition, induction and metabolism by drug metabolizing enzymes; settings: a large variety of enzymes
6 Hz-induced seizures [9] = settings: literature observation (Gower et al., 1993; Klitgaard et al., 1998); cited from earlier work
[10] = approximate value, model not stated, read-out: ED50

CC1(C)O[C@@H]2[C@@H](CO[C@@]3(COS(N)(=O)=O)OC(C)(C)O[C@@H]23)O1 [TPM, topiramate]
anticonvulsant effects against 6 Hz seizure (6 Hz-induced seizures [1]; drugs administered alone): dose-dependent anticonvulsant effects
ED50 (epileptic seizures; [10]): ~300 mg/kg

NC(=O)N1c2ccccc2C=Cc2ccccc21 [CBZ, carbamazepine]
anticonvulsant effects against 6 Hz seizure (6 Hz-induced seizures [1]; drugs administered alone): dose-dependent anticonvulsant effects
ED50 (epileptic seizures; [10]): ~50 mg/kg

O=C1NC(=O)C(c2ccccc2)(c2ccccc2)N1 [PHT, phenytoin]
anticonvulsant effects against 6 Hz seizure (6 Hz-induced seizures [1]; drugs administered alone): dose-dependent anticonvulsant effects

NCC1(CC(=O)O)CCCCC1 [GBP, gabapentin]
anticonvulsant effects against 6 Hz seizure (6 Hz-induced seizures [1]; drugs administered alone): dose-dependent anticonvulsant effects
ED50 (epileptic seizures): ~220 mg/kg

COC[C@@H](NC(C)=O)C(=O)NCc1ccccc1 [LCM, R-2-acetamido-N-benzyl-3-methoxypropionamide]
ED50 (6 Hz-induced seizures [1]; Mus musculus, ip, 0.5 h): 10.1 mg/kg
anticonvulsant effects against 6 Hz seizure (6 Hz-induced seizures [1]; drugs administered alone): dose-dependent anticonvulsant effects
potency compared to the other tested AEDs (6 Hz-induced seizures [1]; drugs administered alone, lowest ED50): highest potency
effect of LCM on plasma levels of AEDs or vice versa [2]: no evidence for any effect
ED50 [3]: 9.9 mg/kg
specific pattern of neuronal activation [4]: attenuated
GABA currents (mouse cortical neurons): increased
glutamate transmission (mouse cortical neurons): inhibited glutamate transmission indirectly
activity against refractory self-sustaining status epilepticus [5]: active
efficacy against lithium-pilocarpine-induced status epilepticus [6]: effective
ED50 (epileptic seizures): ~10 mg/kg
efficacy against cobalt-homocysteine-induced status epilepticus [7]: effective
inhibition or induction of drug metabolizing enzymes [8]: does not inhibit or induce

Nc1nnc(-c2cccc(Cl)c2Cl)c(N)n1 [LTG, lamotrigine]
anticonvulsant effects against 6 Hz seizure (6 Hz-induced seizures [1]; drugs administered alone): dose-dependent anticonvulsant effects
ED50 (epileptic seizures): ~85 mg/kg

CC[C@@H](C(N)=O)N1CCCC1=O [LEV, levetiracetam]
anticonvulsant effects against 6 Hz seizure (6 Hz-induced seizures [1]; drugs administered alone): dose-dependent anticonvulsant effects
ED50 (epileptic seizures): ~20 mg/kg
protection in the 6Hz test (6 Hz-induced seizures [9]): complete protection
